Assay results from patent EP4603105A1, “PHARMACEUTICAL COMPOSITION CONTAINING CYCLIC COMPOUND HAVING SELECTIVE KRAS INHIBITORY EFFECT AGAINST HRAS AND NRAS” (CHUGAI SEIYAKU KABUSHIKI KAISHA, priority 2022, dated 2024).
pIC50: −log10 of the molar value. *1 amine or outer side, *2 acyl side, *3 side chain or, on linkers, in order; H or OH if unused. Where a SMILES comes first, the peptide text is derived from it. Bridges are numbered along the chain shown (N, C = ends). [ ]: non-standard residue; d: D form. The star is where a group is joined. hPhe(3,5-F2-4-CF3) = N[C@@H](CCc1cc(F)c(C(F)(F)F)c(F)c1)C(=O)O; X25 = O=C([C@H](Cc1ccc(C(F)(F)F)cc1)N(CCC(F)(F)F)[*:1])[*:2]; hPhe(3-Cl-4-CF3) = N[C@@H](CCc1ccc(C(F)(F)F)c(Cl)c1)C(=O)O; NPrPhe(4-CF3) = CCCN[C@@H](Cc1ccc(C(F)(F)F)cc1)C(=O)O; NEtPhe(4-Me) = CCN[C@@H](Cc1ccc(C)cc1)C(=O)O; NMeGly(cPent) = CN[C@H](C(=O)O)C1CCCC1; αMeF = C[C@](N)(Cc1ccccc1)C(=O)O; NMeD = CN[C@@H](CC(=O)O)C(=O)O; NMeL = CN[C@@H](CC(C)C)C(=O)O; NMeV = CN[C@H](C(=O)O)C(C)C; Morpholide = C1CN(*)CCO1; NMeA = CN[C@@H](C)C(=O)O; Ac5c = NC1(C(=O)O)CCCC1; Aze = O=C(O)[C@@H]1CCN1; NEtG = CCNCC(=O)O; Sar = CNCC(=O)O

How the values were obtained:
[1] = target: GDP-bound NRAS wild-type protein (Homo sapiens, UniProt P01111); assay: Binding to NRAS by surface plasmon resonance (SPR), KD and KD ratio to KRAS
Procedure, shortened: (§1)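 Affinity is measured by surface plasmon resonance at 30°C against captured, GDP-loaded RAS carrying a biotinylated Avi tag. Compounds are titrated by single-cycle kinetics, and KD comes from a 1:1 fit.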

HRAS wild-type protein = HRAS wild-type protein (Homo sapiens, UniProt P01112); assay: Binding to HRAS by surface plasmon resonance (SPR), KD and KD ratio to KRAS
Procedure, shortened: as §1

[2] = test system: human lung cancer strain NCI-H441; format: cell-based
Procedure, shortened: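 Readout: […] after the ATP-based reagent. Compound: serial dilutions in dimethyl sulfoxide.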

[3] = ratio of KD for GDP-bound NRAS wild-type protein to KD for KRAS
[4] = ratio of KD for HRAS wild-type protein to KD for KRAS
[5] = ratio of the KD value with respect to GDP-bound NRAS wild-type protein to the KD value with respect to KRAS
[6] = ratio of the KD value with respect to HRAS wild-type protein to the KD value with respect to KRAS
[7] = ratio of KD value for GDP-bound NRAS wild-type protein to KD value for KRAS (SPR)
[8] = ratio of KD value for HRAS wild-type protein to KD value for KRAS (SPR)

Sequence of GDP-bound NRAS wild-type protein (P01111 whole entry): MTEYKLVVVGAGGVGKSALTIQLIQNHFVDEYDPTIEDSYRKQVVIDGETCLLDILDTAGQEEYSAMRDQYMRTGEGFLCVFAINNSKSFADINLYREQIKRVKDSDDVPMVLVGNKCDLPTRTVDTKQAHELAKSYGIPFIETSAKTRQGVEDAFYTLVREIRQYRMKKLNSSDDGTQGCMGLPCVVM
Sequence of HRAS wild-type protein (P01112 whole entry): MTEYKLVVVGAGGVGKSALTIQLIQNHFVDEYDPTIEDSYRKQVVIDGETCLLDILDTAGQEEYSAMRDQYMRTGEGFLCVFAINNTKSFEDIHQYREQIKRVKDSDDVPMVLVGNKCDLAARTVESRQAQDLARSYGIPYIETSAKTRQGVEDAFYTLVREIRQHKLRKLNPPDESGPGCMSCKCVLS

| pIC50 [2] | Structure (SMILES) | NRAS /KRAS [1, 3] | HRAS /KRAS (HRAS wild-type protein; [4]) | NRAS /KRAS [1, 5] | HRAS /KRAS (HRAS wild-type protein; [6]) | NRAS /KRAS [1, 7] | HRAS /KRAS (HRAS wild-type protein; [8]) |
| --- | --- | --- | --- | --- | --- | --- | --- |
| 8.07 | CCO[C@@H]1C[C@H]2C(=O)NC3(CC(C)(C)C3)C(=O)N(C)[C@@H](CC(C)(C)C)C(=O)N(C)[C@H](C(=O)N(C)C)CC(=O)N(C)[C@@H](C(C)C)C(=O)N[C@@H]([C@@H](C)CC)C(=O)N(C)CC(=O)N(C)[C@H]3C/C=C\CCN(C3=O)[C@@H](Cc3ccc(C(F)(F)F)cc3)C(=O)N(C)CC(=O)N[C@@H](CCc3ccc(C(F)(F)F)c(OC)c3)C(=O)N2C1 [PP2773] | B (a compound having 3 or more and less than 10 is denoted as B) | B (a compound having 3 or more and less than 10 is denoted as B) |  |  |  |  |
| 7.24 | CCO[C@@H]1C[C@H]2C(=O)NC3(CC(C)(C)C3)C(=O)N(C)[C@@H](C(CC)CC)C(=O)N(C)[C@H](C(=O)N(C)C)CC(=O)N(C)[C@@H](C)C(=O)N[C@@H]([C@@H](C)CC)C(=O)N(C)CC(=O)N(C)[C@H]3C/C=C\CCN(C3=O)[C@@H](Cc3ccc(C)cc3)C(=O)N(C)CC(=O)N[C@@H](CCc3ccc(C(F)(F)F)c(Cl)c3)C(=O)N2C1 [PP2150] |  |  | AA (a compound having 20 or more is denoted as AA) | A (a compound having 10 or more and less than 20 is denoted as A) |  |  |
| 7.95 | CC[C@H](C)[C@@H]1NC(=O)[C@H](CC(C)C)N(C)C(=O)C[C@@H](C(=O)N2CCOCC2)N(C)C(=O)[C@H](C2CCCC2)N(C)C(=O)C2(CCCC2)NC(=O)[C@@H]2CCCN2C(=O)[C@H](CCc2ccc(C(F)(F)F)c(Cl)c2)NC(=O)CN(C)C(=O)[C@H](Cc2ccc(C(F)(F)F)cc2)N(CCC(F)(F)F)C(=O)CN(C)C(=O)CN(C)C1=O [PP0131] ([NMeL]I[Sar][Sar][X25][Sar][hPhe(3-Cl-4-CF3)]P[Ac5c][NMeGly(cPent)][NMeD]-Morpholide; lactam N-11) | B (a compound having 3 or more and less than 10 is denoted as B) | C (A compound having a KD ratio of 0.1 or more and less than 3 is denoted as C) |  |  |  |  |
| 8.37 | CCCC[C@H]1C(=O)N[C@@H]([C@@H](C)CC)C(=O)N(C)CC(=O)N(C)[C@H]2C/C=C\CCN(C2=O)[C@@H](Cc2ccc(C(F)(F)F)cc2)C(=O)N(C)CC(=O)N[C@@H](CCc2cc(F)c(C(F)(F)F)c(F)c2)C(=O)N2CC(F)(F)C[C@H]2C(=O)NC2(CC(C)(C)C2)C(=O)N(C)[C@@H](C2CCCC2)C(=O)N(C)[C@H](C(=O)N(C)C)CC(=O)N1C [PP1714] |  |  |  |  | A (a compound having 10 or more and less than 20 is denoted as A) | A (a compound having 10 or more and less than 20 is denoted as A) |
| 7.44 | CCO[C@@H]1C[C@H]2C(=O)NC3(CC(F)(F)C3)C(=O)N(C)[C@@H](C3CCCC3)C(=O)N(C)C(C(C)C)CC(=O)N(C)[C@@H](CC3CC3)C(=O)N[C@@H]([C@@H](C)CC)C(=O)N(C)CC(=O)N(C)[C@H]3C/C=C\CCN(C3=O)[C@@H](Cc3ccc(C(F)(F)F)cc3)C(=O)N(C)CC(=O)N[C@@H](CCc3cc(F)c(C(F)(F)F)c(F)c3)C(=O)N2C1 (stereo partly drawn) [PP1598] |  |  |  |  | A (a compound having 10 or more and less than 20 is denoted as A) | A (a compound having 10 or more and less than 20 is denoted as A) |
| 7.81 | CCC[C@H]1C(=O)N[C@@H]([C@@H](C)CC)C(=O)N(C)CC(=O)N(C)[C@H]2C/C=C\CCN(C2=O)[C@@H](Cc2ccc(C)cc2)C(=O)N(C)CC(=O)N[C@@H](CCc2ccc(C(F)(F)F)c(Cl)c2)C(=O)N2C[C@H](OCC)C[C@H]2C(=O)NC2(CCC2)C(=O)N(C)[C@@H](C2CCCC2)C(=O)N(C)[C@H](C(=O)N(C)CC)CC(=O)N1C [PP1895] |  |  |  |  | A (a compound having 10 or more and less than 20 is denoted as A) | B (a compound having 3 or more and less than 10 is denoted as B) |
| 8.28 | CCC[C@H]1C(=O)N[C@@H]([C@@H](C)CC)C(=O)N(C)CC(=O)N(C)[C@H]2C/C=C\CCN(C2=O)[C@@H](Cc2ccc(C(F)(F)F)cc2)C(=O)N(C)CC(=O)N[C@@H](CCc2cc(Cl)c3sccc3c2)C(=O)N2C[C@H](OCC)C[C@H]2C(=O)NC2(CC(C)(C)C2)C(=O)N(C)[C@@H](C2CCCC2)C(=O)N(C)[C@H](C(=O)N(C)C)CC(=O)N1C [PP2946] | A (a compound having 10 or more and less than 20 is denoted as A) | A (a compound having 10 or more and less than 20 is denoted as A) |  |  |  |  |
| 7.26 | CCCN1C(=O)CN(C)C(=O)CN(CC)C(=O)[C@H]([C@@H](C)CC)NC(=O)[C@H](CC(C)C)N(C)C(=O)C[C@@H](C(=O)N2CCOCC2)N(C)C(=O)[C@H](C2CCCC2)N(C)C(=O)C2(CCCC2)NC(=O)[C@@H]2CCN2C(=O)[C@H](CCc2ccc(C(F)(F)F)c(Cl)c2)NC(=O)CN(C)C(=O)[C@@H]1Cc1ccc(C(F)(F)F)cc1 [PP0294] ([NMeL]I[NEtG][Sar][NPrPhe(4-CF3)][Sar][hPhe(3-Cl-4-CF3)][Aze][Ac5c][NMeGly(cPent)][NMeD]-Morpholide; lactam N-11) | B (a compound having 3 or more and less than 10 is denoted as B) | C (A compound having a KD ratio of 0.1 or more and less than 3 is denoted as C) |  |  |  |  |
| 6.78 | CC[C@H](C)[C@@H]1NC(=O)[C@H](CC(C)C)N(C)C(=O)C[C@@H](C(=O)N2CCOCC2)N(C)C(=O)[C@H](C2CCCC2)N(C)C(=O)C2(CCCC2)NC(=O)[C@@H]2CCCN2C(=O)[C@H](CCc2cc(F)c(C(F)(F)F)c(F)c2)NC(=O)CN(C)C(=O)[C@H](Cc2ccc(C(F)(F)F)cc2)N2CCCCC[C@@H](C2=O)N(C)C(=O)[C@@H]2CCN2C1=O [PP0484] |  |  | A (a compound having 10 or more and less than 20 is denoted as A) | B (a compound having 3 or more and less than 10 is denoted as B) |  |  |
| 7.61 | CC[C@H](C)[C@@H]1NC(=O)[C@H](CC(C)C)N(C)C(=O)C[C@@H](C(=O)N2CCOCC2)N(C)C(=O)[C@H](C(C)C)N(C)C(=O)C2(CCCC2)NC(=O)[C@@H]2CCCN2C(=O)[C@H](CCc2ccc(C(F)(F)F)c(Cl)c2)NC(=O)CN(C)C(=O)[C@H](Cc2ccc(C)cc2)N(CC)C(=O)[C@@H]2CCN2C(=O)[C@H](C)N(C)C1=O [PP0015] ([NMeL]I[NMeA][Aze][NEtPhe(4-Me)][Sar][hPhe(3-Cl-4-CF3)]P[Ac5c][NMeV][NMeD]-Morpholide; lactam N-11) | C (A compound having a KD ratio of 0.1 or more and less than 3 is denoted as C) | C (A compound having a KD ratio of 0.1 or more and less than 3 is denoted as C) |  |  |  |  |
| 8.54 | CCC[C@H]1C(=O)N[C@@H]([C@@H](C)CC)C(=O)N(C)CC(=O)N(C)[C@H]2C/C=C\CCN(C2=O)[C@@H](Cc2ccc(C)cc2)C(=O)N(C)CC(=O)N[C@@H](CCc2ccc(C(F)(F)F)c(OC)c2)C(=O)N2C[C@H](OCC)C[C@H]2C(=O)N(C)C2(CCC2)C(=O)N(C)[C@@H](C2CCCC2)C(=O)N(C)[C@H](C(=O)N2CCCC2)CC(=O)N1C [PP3106] | A (a compound having 10 or more and less than 20 is denoted as A) | A (a compound having 10 or more and less than 20 is denoted as A) |  |  |  |  |
| 7.61 | CCO[C@@H]1C[C@H]2C(=O)NC3(CC(C)(C)C3)C(=O)N(C)[C@@H](C(CC)CC)C(=O)N(C)[C@H](C(=O)N(C)C)CC(=O)N(C)[C@@H](C(C)C)C(=O)N[C@@H]([C@@H](C)CC)C(=O)N(C)CC(=O)N(C)[C@H]3C/C=C\CCN(C3=O)[C@@H](Cc3ccc(C(F)(F)F)cc3)C(=O)N(C)CC(=O)N[C@@H](CCc3ccc(C(F)(F)F)c(Cl)c3)C(=O)N2C1 [PP2140] |  |  | AA (a compound having 20 or more is denoted as AA) | A (a compound having 10 or more and less than 20 is denoted as A) |  |  |
| 7.11 | CC[C@H](C)[C@@H]1NC(=O)[C@H](CC(C)C)N(C)C(=O)C[C@@H](C(=O)N2CCOCC2)N(C)C(=O)[C@H](C2CCCC2)N(C)C(=O)C2(CCC2)NC(=O)[C@@H]2CCCN2C(=O)[C@H](CCc2ccc(C(F)(F)F)c(Cl)c2)NC(=O)CN(C)C(=O)[C@H](Cc2ccc(F)cc2)N2CCCCC[C@@H](C2=O)N(C)C(=O)CN(C)C1=O [PP0967] | B (a compound having 3 or more and less than 10 is denoted as B) | B (a compound having 3 or more and less than 10 is denoted as B) |  |  |  |  |
| 7.29 | CCCN1C(=O)CN(C)C(=O)CN(C)C(=O)[C@H]([C@@H](C)CC)NC(=O)[C@H](CC(C)C)N(C)C(=O)C[C@@H](C(=O)N(C)C)N(C)C(=O)[C@H](C2CCCC2)N(C)C(=O)[C@](C)(Cc2ccccc2)NC(=O)[C@@H]2CCCN2C(=O)[C@H](CCc2cc(F)c(C(F)(F)F)c(F)c2)NC(=O)CN(C)C(=O)[C@@H]1Cc1ccc(C(F)(F)F)cc1 [PP0740] ([NMeL]I[Sar][Sar][NPrPhe(4-CF3)][Sar][hPhe(3,5-F2-4-CF3)]P[αMeF][NMeGly(cPent)][NMeD]-NMe2; lactam N-11) |  |  | B (a compound having 3 or more and less than 10 is denoted as B) | C (A compound having a KD ratio of 0.1 or more and less than 3 is denoted as C) |  |  |
| 8.46 | CCC[C@H]1C(=O)N[C@@H]([C@@H](C)CC)C(=O)N(C)CC(=O)N(C)[C@H]2CCCCN(C2=O)[C@@H](Cc2ccc(C(F)(F)F)cc2)C(=O)N(C)CC(=O)N[C@@H](CCc2cc(F)c(C(F)(F)F)c(F)c2)C(=O)N2C[C@H](OCC)C[C@H]2C(=O)NC2(CCC2)C(=O)N(C)[C@@H](C2CCCC2)C(=O)N(C)[C@H](C(=O)N(C)C)CC(=O)N1C [PP0694] |  |  | C (A compound having a KD ratio of 0.1 or more and less than 3 is denoted as C) | C (A compound having a KD ratio of 0.1 or more and less than 3 is denoted as C) |  |  |
